These results are taken from US20240139167A1, “LYSOSOME-ASSOCIATED MEMBRANE PROTEIN TARGETING COMPOUNDS AND USES THEREOF” (HADASIT MEDICAL RESEARCH SERVICES AND DEVELOPMENT LTD., priority 2021, published 2024).

Assay [1] relates to LAMP1-KD and GFP control APBD primary fibroblasts. In words: LAMP1 knockdown: autophagic flux, lysosomal pH (Lysosensor), PAS glycogen. In kind it is cell-based, human. From the text:
FIGS. 6A-6E include bar graphs of autophagic flux, determined by the extent of lysosomal inhibitors-dependent increase in the ratio of lipidated to non-lipidated LC3 (LC3II/LC3I) (6A); representative TEM images of liver tissue from 9.5 month old Gbe^ys/ys mice treated with Compound 11, or 5% DMSO vehicle (6B), G: Glycogen (alpha particles) and polyglucosan (structures with variable electron densities), L: Lysosomes, M: Mitochondria; right panel: lysosomal glycogen stain was quantified by ImageJ “count particle” tool; micrograph of LAMP1 knocked down and control APBD primary skin fibroblasts treated or not with Compound 1 and lysosomal inhibitors (LI) and quantification of 3 experiments and results of Student's t-tests. *, p<0.1; **, p<0.05; ***, p<0.01 (6C); graphs of lysosomal pH changes determined in APBD primary fibroblasts transduced with lentiviruses encoding for GFP or GFP-shLAMP1 and treated or not with Compound 1 for 24 h and confocal microscope images of cells treated with Lysosensor and stained for PAS (6D); and bar graph of ATP production rate assay in LAMP1-KD and GFP (Control) cells treated for 24 h (chronic) or on assay (acute) with Compound 1 (6E).
To determine the functional importance of the interaction between Compound 1 and LAMP1, the inventors knocked down the latter using a lentiviral vector carrying GFP tagged shRNA against LAMP1. […] Furthermore, to test whether LAMP1-KD and Compound 1 enhanced autophagic flux by improving lysosomal function, the inventors quantified lysosomal acidification using the pH ratiometric dye Lysosensor™, which quantifies pH based on the yellow/blue emission ratio. […] The inventors show by flow cytometry (FIG. 6D, upper panel) the overall cellular acidification as an increase in 375 nm-excited yellow/blue emission, and by confocal microscopy that this acidification is associated with brighter yellow fluorescence in lysosomes (FIG. 6D, middle panel).

The subject of assay [2] is skin fibroblasts derived from Gsd1a patients. In words: NAD+/NADH ratio, Sirt1 and p62 expression. In kind it is cell-based, human. Particulars: 50 μM, 24 h. The procedure:
FIG. 21 includes vertical bar graphs showing skin fibroblasts derived from Gsd1a patients were treated with solvent or 50 μM Compound A for 24 h and analyzed for NAD+/NADH ratio by the Promega kit (left panel) and for Sirt1 (middle panel) and p62 (right panel) expression by western immunoblotting.
NAD+ and NADH are key precursors for the electron transfer chain, TCA cycle, glycolysis, amino acid synthesis, fatty acid synthesis, and nucleotide synthesis. The NAD+/NADH ratio reports the extent of overall catabolism and the balance between glycolysis and OxPhos. The increase in the NAD+/NADH ratio means acceleration of electron flow in the mitochondrial electron transport chain (note, not mitochondrial ATP production) and of glycolysis to better manage metabolic demands. Furthermore, Sirt1 induction, often associated with increased NAD+/NADH ratio, is a well-documented and innovative anti-aging, calorie restriction-mimic and anti-cancer therapeutic strategy (see for example Hyun et al., (2020)). Thus, the results in Gsd1a cells (FIG. 21), showing induction of the NAD+/NADH ratio, as well as Sirt1, indicate that 144DG11 is a promising therapy for a plethora of different metabolic disorders, aging-related complications, and cancer.

The test system of assay [3] is Gbe^ys/ys mice. The experiment in a line: Histological PG (PAS after diastase) and biochemical glycogen determination in tissues. In kind it is in vivo. From the text:
FIGS. 2A-2C include images and graphs of histopathological effects of Compound 1 and its pharmacokinetics: right panel present images of indicated tissues of sacrificed mice and stained for PG (arrows) with PAS following treatment with diastase; left panel, presents bar graphs quantifying PAS staining, based on analysis of 4 sections from each tissue in n=2 wild type, n=7 Gbe^ys/ys vehicle-treated, and n=9 Compound 1-treated mice (2A); bar graph quantifying total glycogen in the respective tissues (2B); graph of Compound 1pharmacokinetics (2C); 9 months old Gbe^ys/ys mice were SC-injected with 150 μL of Compound 1 at 250 mg/kg. Mice were sacrificed 30-, 60-, 90-, and 210-min post injection and the indicated tissues were removed, as well as 200 μL of serum drawn. […] Shown are means and SEM of results obtained from n=3 mice at each time point.
Brain, heart, muscle, nerve fascicles (peripheral nerves), and liver tissues from wt and Compound 1 and vehicle treated Gbe^ys/ys animals were separated to characterize the histopathological effects of Compound 1. Tissues were extracted, fixed, embedded in paraffin, and sectioned. After deparaffinization, sections were treated for 5 min with 0.5% diastase to digest non-polyglucosan glycogen, leaving behind polyglucosan. Sections were then washed, stained for polyglucosan with PAS and counterstained with hematoxylin, and analyzed by light microscopy, all as previously described. […] Following digestion, total glycogen was determined based on the glucose content using the Sigma GAGO20 kit.
This information is important for determining whether the expected mode of action of Compound 1 discovered ex vivo -reduction of polyglucosan levels in fibroblasts — also takes place in vivo and if so in which tissues. […] Following diastase treatment to digest non-polyglucosan glycogen, leaving behind polyglucosan, sections were stained for polyglucosan with periodic acid-Schiff s (PAS) reagent, counterstained with hematoxylin and analyzed by light microscopy.

Where [4] appears, read: PAS after diastase, sacrifice at 9.5 months.

In the case of `COCCN(Cc1sccc1C)C(=O)c1cc(C)nc(O)c1` [Compound 1], the “autophagic flux in LAMP1 knocked down cells” value in assay [1] (24 h serum starvation) is given as “further enhanced”. Moreover, the “lysosomal pH (Lysosensor)” value in assay [1] (GFP and LAMP1-KD APBD cells, 24 h) is “led to lysosomal acidification”. For the same molecule, in assay [1] (GFP control and shLAMP1-GFP transduced), the “reduction of cellular glycogen levels by LAMP knockdown (PAS)” value was “slightly enhanced”. Besides, in assay [2], the “NAD+/NADH ratio” value is “induction”, the Sirt1 expression entry was “induction” and the p62 expression entry was “downmodulated”. In assay [3] (setting [4]), the muscle polyglucosans result was “no apparent effect”; the “polyglucosan levels in brain, liver, heart, and peripheral nerve” value is “significant reduction in polyglucosan levels”. Moreover, the “total glycogen levels, determined biochemically” value in assay [3] (same tissues) is reported as “correspondingly affected”.
